Test results: patent US8227468B2, “Cathepsin S inhibitor compounds” (Eli Lilly and Company, priority 2010, dated 2012)

Tests used:
[1] = target: T1, human cathepsin V (Homo sapiens, UniProt O60911); assay: human cathepsin V enzyme inhibitor (selectivity) assay; format: biochemical
T1 construct: purchased Calbiochem
Protocol: (§1) Potency assays for human cathepsin S and mouse cathepsin S and selectivity assays for human cathepsins L, B, K, V, and F are described below. The experimental conditions and/or materials of each assay differ slightly and therefore such differences are noted either directly within the general assay conditions or coded according to the respective enzyme assay using designations 1a through 1 g in Table 1 immediately following the general assay conditions.
(§2) Test compounds are prepared in DMSO to make up a 10 mM stock solution. The stock solution is serially diluted in DMSO to obtain a ten-point dilution curve with a final compound concentration range 1a in a 96-well round-bottom plate before conducting the in vitro enzymatic assay.
(§3) Amount 1c of substrate, benzyloxycarbonyl-L-leucyl-L-arginine-4-methyl-coumaryl-7-amide (Peptide Institute), prepared in assay buffer, is added to each well of the plate for a final concentration 1d. Amount 1e of the respective enzyme, described immediately hereafter, prepared in assay buffer is added to each well of the plate containing substrate and test compound resulting in a final concentration 1f to initiate the reaction. • Human cathepsins S, L, K, and V: Obtained from Calbiochem. • Mouse cathepsin S: Briefly, mouse cathepsin S is cloned in baculovirus using a mCathepsin S-pAN51(T760) construct containing a histidine tag. […]

[2] = target: human cathepsin B (Homo sapiens, UniProt P07858); assay: human cathepsin B enzyme inhibitor (selectivity) assay; format: biochemical
Protocol: as §1, §2, §3

[3] = target: T2, human cathepsin L (Homo sapiens, UniProt P07711); assay: human cathepsin L enzyme inhibitor (selectivity) assay; format: biochemical
T2 construct: purchased Calbiochem
T2 sequence (P07711 114-333): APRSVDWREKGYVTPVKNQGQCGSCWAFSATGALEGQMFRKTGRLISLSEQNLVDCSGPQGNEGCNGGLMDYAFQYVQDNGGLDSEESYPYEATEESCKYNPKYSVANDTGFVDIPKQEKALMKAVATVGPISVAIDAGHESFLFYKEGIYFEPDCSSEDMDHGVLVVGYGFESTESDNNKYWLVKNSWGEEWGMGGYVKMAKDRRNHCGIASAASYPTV
Protocol: as §1, §2, §3

[4] = target: T3, human cathepsin S (Homo sapiens, UniProt P25774); assay: human cathepsin S enzyme inhibitor assay; format: biochemical
T3 construct: purchased Calbiochem
T3 sequence (P25774 115-331): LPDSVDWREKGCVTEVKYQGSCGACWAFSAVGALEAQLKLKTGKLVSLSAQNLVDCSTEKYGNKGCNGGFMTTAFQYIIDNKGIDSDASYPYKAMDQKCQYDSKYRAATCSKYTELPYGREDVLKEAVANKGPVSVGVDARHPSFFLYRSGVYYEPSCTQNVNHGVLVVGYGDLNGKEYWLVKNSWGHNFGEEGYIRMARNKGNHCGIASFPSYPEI
Protocol: as §1, §2, §3

[5] = system: p10 in PWBC; assay: p10 Accumulation Assay; format: in vivo, mouse; conditions: 4 hr.; for In vivo relative p10 accumulation in PWBC: mice, relative to vehicle, normalized with tubulin, mean ± SD
Protocol: After 4 hr., whole blood (300-500 μL) is drawn from each mouse. The step of removing red blood cells is performed by adding one mL Flow Cytometry Lysing Solution™ (Santa Cruz Biotechnology, Inc.), keeping at room temperature for 10 min., centrifuging at 4000 rpm for 5 min. and then discarding the supernatant. This step is repeated once to remove the red blood cells completely. The PWBC pellet is resuspended with 50 μL CytoBuster™ Reagent (Novagen) and sonicated at high power for 5-10 sec.
The p10 amount is determined using a Western blot. […] Gels are run at 120 V for 60 min. with the NUPAGE® MES SDS running buffer (Invitrogen). Proteins are transferred to 0.2 μm nitrocellulose (BIO-RAD) at 100 V for 30 min. with NUPAGE® Transfer Buffer (Invitrogen) and 20% methanol (EMD). Blot is briefly rinsed with PBS and blocked in 10 mL in ODYSSEY® Blocking Buffer (LI-COR Biosciences) at room temperature for 60 min. For p10, the blot is incubated with primary antibody against mouse CD74 (1 μg/ml of rat anti-CD74 antibody)(BD Bioscience) in blocking buffer at 4° C. overnight. For tubulin control, the blot is incubated with rabbit anti-beta tubulin pAb (0.2 μg/ml)(Abcam) in blocking buffer at 4° C. overnight. The blot is washed with washing buffer (DPBS from HyClone) with 0.01% polysorbate 20 four times for 10 min. each. The blot is then incubated with secondary antibody at room temperature for 60 min. For p10, ALEXA FLUOR® 680 goat anti rat IgG (1:5000 dilution)(Invitrogen) is used. For tubulin, ALEXA FLUOR® 680 goat anti rabbit IgG (1:5000 dilution)(Invitrogen). The blot is again washed as described above and placed in PBS for scanning.
The images are captured by scanning on an ODYSSEY® Infrared Imager (LI-COR Biosciences). The p10 amount is analyzed with ODYSSEY® software and normalized with the tubulin amount. The data are statistically analyzed with JMP® 7 software (Cary, N.C.). Values are represented as means±standard deviation.

[6] = system: CaCl2-induced AAA (aortic luminal perimeter); assay: CaCl2-induced AAA Animal Efficacy Model; format: in vivo, mouse; conditions: for In Vivo Percentage (%) Reduction of AAA: 129SvEv mice, aortic luminal perimeter by ultrasound, mean ± SD
Protocol: The first dose is given one day prior to surgery (p.m.) and the second dose is given the morning of surgery. […] B.i.d. dosing (a.m. and p.m.) is continued the day after surgery for 28 days. On the day of surgery, animals received analgesia ([…]®, 0.1 mg/kg) subcutaneously 10 min. pre-operatively and 3 hr. post-operatively. Mice are anesthetized by inhalation of 2% isoflurane and a laparotomy is performed. The abdominal aorta is exposed by retracting the bowel laterally with a surgical retractor and leaving the bowel in the abdominal cavity. […] Once isolated, the region of interest of the abdominal aorta is wrapped with a premeasured sterile cotton gauze soaked in 0.25 M aqueous CaCl2 solution. In sham control animals, 0.9% saline is substituted for CaCl2. After 7 min., the gauze is removed and a second CaCl2 soaked gauze (or 0.9% saline soaked gauze in sham animals) is applied. Following a second 7 minute period, the gauze is removed, the aorta is rinsed with 0.9% saline and the abdomen is closed. […] After 4 weeks of dosing as described above, the aortic luminal perimeter, area and diameter of the aortic segments that were wrapped with gauze are determined by ultrasound (Biosound Ultrasound-7.5 MHz) and statistically analyzed with JMP® 7 software (Cary, N.C.).

[7] = target: T4, mouse cathepsin S (Mus musculus, UniProt O70370); assay: mouse cathepsin S enzyme inhibitor assay; format: biochemical
T4 construct: histidine tag; made in house
Protocol: as §1, §2, §3

[8] = target: T5, human cathepsin K (Homo sapiens, UniProt P43235); assay: human cathepsin K enzyme inhibitor (selectivity) assay; format: biochemical
T5 construct: purchased Calbiochem
T5 sequence (P43235 115-329): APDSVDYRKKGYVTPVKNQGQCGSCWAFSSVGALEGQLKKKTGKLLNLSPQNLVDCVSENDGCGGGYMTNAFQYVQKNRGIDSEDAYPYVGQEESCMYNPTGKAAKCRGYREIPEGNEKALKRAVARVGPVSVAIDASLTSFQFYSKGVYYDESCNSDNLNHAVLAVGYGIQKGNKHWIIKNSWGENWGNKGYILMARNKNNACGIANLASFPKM
Protocol: as §1, §2, §3

T1 sequence (O60911 114-334): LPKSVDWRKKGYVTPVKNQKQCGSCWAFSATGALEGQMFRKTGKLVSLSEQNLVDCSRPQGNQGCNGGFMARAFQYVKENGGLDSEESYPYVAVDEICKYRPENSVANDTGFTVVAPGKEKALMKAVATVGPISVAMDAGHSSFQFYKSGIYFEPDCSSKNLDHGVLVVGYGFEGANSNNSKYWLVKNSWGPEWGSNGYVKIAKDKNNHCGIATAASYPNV

IC50 [1]: > 100 µM
IC50 [2]: ~94 µM
IC50 [3]: > 167 µM
IC50 [4]: ~0.0102 µM
IC50 [7]: ~0.0039 µM
IC50 [8]: > 100 µM
SMILES: CNC(=O)O[C@H]1CCc2ccc(N3CCN(C4COC4)CC3)cc2[C@@H]1NC(=O)c1ccc(F)cc1 [Example 2, [(1S,2S)-1-[(4-Fluorobenzoyl)amino]-7-[4-(oxetan-3-yl)piperazin-1-yl]tetralin-2-yl] N-methylcarbamate]
In vivo relative p10 accumulation in PWBC ([5]; 3 mg/kg oral gavage): 1.1 ± 0.7 fold increase
In vivo relative p10 accumulation in PWBC ([5]; 10 mg/kg oral gavage): 2.2 ± 1.3 fold increase
In vivo relative p10 accumulation in PWBC ([5]; 30 mg/kg oral gavage): 4.6 ± 1.2 fold increase
effect on p10 in PWBC (in words) ([5]; 3-30 mg/kg oral): dose dependently increase p10 in PWBC
In Vivo Percentage (%) Reduction of AAA ([6]; 1 mg/kg oral gavage b.i.d. 4 weeks): 11 ± 7%
In Vivo Percentage (%) Reduction of AAA ([6]; 3 mg/kg oral gavage b.i.d. 4 weeks): 32 ± 9%
In Vivo Percentage (%) Reduction of AAA ([6]; 10 mg/kg oral gavage b.i.d. 4 weeks): 43 ± 9%
In Vivo Percentage (%) Reduction of AAA ([6]; 30 mg/kg oral gavage b.i.d. 4 weeks): 52 ± 7%
effect on aortic luminal perimeter (in words) ([6]; 1-30 mg/kg oral b.i.d. 4 weeks): reduce the aortic luminal perimeter in a dose-dependent manner
